Measurements published in ChEMBL document CHEMBL6092164, “Rational design, synthesis, and biophysical characterization of a peptidic MDM2-MDM4 interaction inhibitor” (Bioorg Med Chem, 2024).
pKd: −log10 of the molar value.

Molecular target: E3 ubiquitin-protein ligase Mdm2 (Homo sapiens, UniProt Q00987)
Experiment: Binding affinity to RED dye fluorescently labelled full length human recombinant GST-tagged MDM2 expressed in Escherichia coli BL21 cells assessed as dissociation constant incubated for 60 mins in dark by Microscale Thermophoresis assay

Sequence of E3 ubiquitin-protein ligase Mdm2 (Q00987 whole entry): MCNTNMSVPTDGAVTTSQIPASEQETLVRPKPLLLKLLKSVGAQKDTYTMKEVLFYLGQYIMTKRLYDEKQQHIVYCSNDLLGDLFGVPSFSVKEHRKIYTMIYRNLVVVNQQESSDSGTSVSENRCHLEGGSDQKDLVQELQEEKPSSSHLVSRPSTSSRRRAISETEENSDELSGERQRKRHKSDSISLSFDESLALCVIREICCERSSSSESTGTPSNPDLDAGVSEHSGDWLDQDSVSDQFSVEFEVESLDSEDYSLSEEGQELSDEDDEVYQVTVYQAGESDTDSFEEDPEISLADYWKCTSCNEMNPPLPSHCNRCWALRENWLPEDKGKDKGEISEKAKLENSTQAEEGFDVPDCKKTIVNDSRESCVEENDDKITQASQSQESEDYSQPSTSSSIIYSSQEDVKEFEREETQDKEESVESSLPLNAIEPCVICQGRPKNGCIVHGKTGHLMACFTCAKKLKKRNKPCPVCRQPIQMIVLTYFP

pKd	Substance
4.72	H-KVFIA-OH
< 3.00	H-VAIKF-OH
